Data published in patent publication US5691361A, “1,4-dihydropyridine derivatives, a process for their preparation and their use for influencing the blood flow” (priority 1995, dated 1997).

Columns and labels:
rabbit aorta strips = assay: Vasoconstrictory effect in rabbit aorta strips at low depolarizing conditions (10 mM K+); type: cell-based; conditions: Oryctolagus cuniculus; rabbit aorta strips predepolarized with 10 mM K+
Procedure: The vasoconstrictory effects are measured at low depolarizing conditions in rabbit aorta strips. 10 mM K^+ is used to obtain a low starting concentration. Subsequently, increasing concentrations of the test compound are added in order to achieve an increase in contraction.
The EC50 (negative logarithm of the molar concentration required to increase the calcium induced contraction of low K^+ depolarized rabbit aorta by 50%) is analysed by interpolation of the corresponding concentration-response curves (table 4).

[1] = system: spontaneously hypertensive rats (SHR); assay: Antihypertensive activity in spontaneously hypertensive rats (systolic blood pressure, tail plethysmography); type: in vivo, spontaneously hypertensive rats (SHR) of Okamoto strain; conditions: Rattus norvegicus, single oral dose 20 mg/kg, 2 hours after treatment
Procedure: The antihypertensive activity of the compounds of the invention is tested in spontaneously hypertensive rats (SHR) of Okamoto strain. Systolic blood pressure is monitored by tail plethysmography. The animals are trained for two weeks for the monitoring process. On the day of the experiment the rats are placed in an oven for two hours at 31°±1° C. and blood pressure is recorded graphically. The measurement recorded is the average of five measurements taken in each case. Only animals with basic values of systolic blood pressure over 170 mm Hg are considered hypertensive. After 24 hours fasting the compound to be tested (20 mg/kg) and/or a carrier (20% PEG 400 in 0.5% aqueous methyl cellulose (10 ml/kg)) is orally administered to the selected hypertensive animals by means of a gastric cannula. The values are expressed in percentage variation 2 hours after treatment.

[2] = system: left stimulated rabbit atrium / rabbit aorta; assay: Tissue selectivity: ratio of IC50 in left stimulated isolated rabbit atrium to IC50 in K+-depolarized rabbit aorta; type: cell-based; conditions: ratio of IC50 in left stimulated rabbit atrium and IC50 in rabbit aorta
Procedure: (§1) The vasodilatory effects are tested as follows: an isolated aorta of the thorax of white New Zealand rabbits is secured in an organ bath. The contractile activity of the helical throacic aorta strip is recorded after depolarization with Krebs solution without calcium (35 mM, potassium) and addition of external calcium pulses (1.5 mM). The compounds are added in increasing concentrations before calcium is reintroduced.
The electrical stimulation is fixed at 1 Hz. After one hour equilibration the percentage contraction is set at 100%, increased concentrations of the compounds are added to the bath every 15 minutes and the changes in the contractile force are recorded. The IC50 values are calculated by interpolation from the concentration-effect relationship determined in each of the experiments.

rabbit aorta = assay: Vasodilatory effect: inhibition of calcium-induced contraction of K+-depolarized isolated rabbit aorta strips; type: cell-based, white New Zealand rabbits; conditions: Oryctolagus cuniculus
Procedure: as §1

Row | SMILES | EC50 (rabbit aorta strips) [nM] | change in vivo at 20 mg/kg [1] [%] | Selectivity index (Atrium/Aorta) [2] | IC50 (rabbit aorta) [nM]
1 | COC(=O)C1=C(C)NC(C)=C([N+](=O)[O-])C1c1ccccc1C(F)(F)F (stereo not shown) [BayK-8644, 2,6-dimethyl-3-nitro-4-(2-trifluoromethylphenyl)-1,4-dihydropyridine-5-carboxylic acid methylester, reference compound] | 13 | – | – | –
2 | CC1=C(C(=O)OCCN2C(=O)c3ccccc3S2(=O)=O)C(c2cccc([N+](=O)[O-])c2)C(C(=O)OC(C)C)=C(C)N1 (stereo not shown) [Example 3, 2,6-Dimethyl-5-isopropoxycarbonyl-4-(3-nitrophenyl)-1,4-dihydropyridine-3-carboxylic acid-2-[N-(1,2-benzisothiazolyl-3(2H)one-1,1-dioxide)]-ethylester] | – | 19.7 | 137 | 0.27
3 | CC1=C(C(=O)OCCN2C(=O)c3ccccc3S2(=O)=O)C(c2cccc(Cl)c2Cl)C(C(=O)OC(C)C)=C(C)N1 (stereo not shown) [Example 16, 4-(2,3-Dichlorophenyl)-2,6-dimethyl-5-isopropoxycarbonyl-1,4-dihydropyridine-3-carboxyic acid-2-[N-(1,2-benzisothiazolyl-3(2H)one-1,1-dioxide)]-ethylester] | – | 7.45 | 2744 | 0.25
4 | CCOC(=O)C1=C(C)NC(C)=C(C(=O)OCCN2C(=O)c3ccccc3S2(=O)=O)C1c1ccccc1C(F)(F)F (stereo not shown) [Example 17, 2,6-Dimethyl-5-ethoxycarbonyl-4-(2-trifluoromethylphenyl)-1,4-dihydropyridine-3-carboxylic acid-2-[N-(1,2-benzisothiazolyl-3(2H)one-1,1-dioxide)]-ethylester] | – | 27.3 | 152 | 0.49
5 | CC1=C(C(=O)OCCN2C(=O)c3ccccc3S2(=O)=O)C(c2ccccc2C(F)(F)F)C(C(=O)OC(C)C)=C(C)N1 (stereo not shown) [Example 18, 2,6-Dimethyl-5-isopropoxycarbonyl-4-(2-trifluoromethylphenyl)-1,4-dihydropyridine-3-carboxylic acid-2-[N-(1,2-benzisothiazolyl-3(2H)one-1,1-dioxide)]-ethylester] | – | 37.1 | 103 | 0.98
6 | CC1=C(C(=O)OCCCN2C(=O)c3ccccc3S2(=O)=O)C(c2cccc([N+](=O)[O-])c2)C(C(=O)OC(C)C)=C(C)N1 (stereo not shown) [Example 25, 2,6-Dimethyl-5-isopropoxycarbonyl-4-(3-nitrophenyl)-1,4-dihydropyridine-3-carboxylic acid-3-[N-(1,2-benzisothiazolyl-3(2H)one-1,1-dioxide)]-propylester] | – | -1.01 | 205 | 1.02
7 | COC(=O)C1=C(C)NC(C)=C(C(=O)OCCCN2C(=O)c3ccccc3S2(=O)=O)C1c1cccc(Cl)c1Cl (stereo not shown) [Example 29, 4-(2,3-Dichlorophenyl)-2,6-dimethyl-5-methoxycarbonyl-1,4-dihydropyridine-3-carboxylic acid-3-[N-(1,2-benzisothiazolyl-3(2H)one-1,1-dioxide)]-propylester] | – | 35 | 686 | 0.76
8 | COC(=O)C1=C(C)NC(C)=C(C(=O)OCCCN2C(=O)c3ccccc3S2(=O)=O)C1c1ccccc1Cl (stereo not shown) [Example 34, 4-(2-Chlorophenyl)-2,6-dimethyl-5-methoxycarbonyl-1,4-dihydropyridine-3-carboxylic acid-3-[N-(1,2-benzisothiazolyl-3(2H)one-1,1-dioxide)]-propylester] | – | 11.1 | 77 | 1.82
9 | COC(=O)C1=C(C)NC(C)=C(C(=O)OCCCN2C(=O)c3ccccc3S2(=O)=O)C1c1ccccc1[N+](=O)[O-] (stereo not shown) [Example 37, 2,6-Dimethyl-5-methoxycarbonyl-4-(2-nitrophenyl)-1,4-dihydropyridine-3-carboxylic acid-3-[N-(1,2-benzisothiazolyl-3(2H)one-1,1-dioxide)]-propylester] | – | 6.83 | 80 | 1.5
10 | CC1=C(C(=O)OCCCN2C(=O)c3ccccc3S2(=O)=O)C(c2ccccc2[N+](=O)[O-])C(C(=O)OC(C)C)=C(C)N1 (stereo not shown) [Example 39, 2,6-Dimethyl-5-isopropoxycarbonyl-4-(2-nitrophenyl)-1,4-dihydropyridine-3-carboxylic acid-3-[N-(1,2-benzisothiazolyl-3(2H)one-1,1-dioxide)]-propylester] | – | 3.61 | 15 | 1.22
11 | CCOC(=O)C1=C(C)NC(C)=C(C(=O)OCCCN2C(=O)c3ccccc3S2(=O)=O)C1c1cccc(Cl)c1Cl (stereo not shown) [Example 40, 4-(2,3-Dichlorophenyl)-2,6-dimethyl-5-ethoxycarbonyl-1,4-dihydropyridine-3-carboxylic acid-3-[N-(1,2-benzisothiazolyl-3(2H)one-1,1-dioxide)]-propylester] | – | 35.5 | 200 | 1.77
12 | CC1=C(C(=O)OCCCN2C(=O)c3ccccc3S2(=O)=O)C(c2cccc(Cl)c2Cl)C(C(=O)OC(C)C)=C(C)N1 (stereo not shown) [Example 42, 4-(2,3-Dichlorophenyl)-2,6-dimethyl-5-isopropoxycarbonyl-1,4-dihydropyridine-3-carboxylic acid-3-[N-(1,2-benzisothiazolyl-3(2H)one-1,1-dioxide)]-propylester] | – | 10.5 | 75 | 2.08
13 | CCOC(=O)C1=C(C)NC(C)=C(C(=O)OCCCN2C(=O)c3ccccc3S2(=O)=O)C1c1ccccc1C(F)(F)F (stereo not shown) [Example 43, 2,6-Dimethyl-5-ethoxycarbonyl-4-(2-trifluoromethylphenyl)-1,4-dihydropyridine-3-carboxylic acid-3-[N-(1,2-benzisothiazolyl-3(2H)one-1,1-dioxide)]-propylester] | – | 18.6 | 163 | 0.76
14 | COCCOC(=O)C1=C(C)NC(C)=C(C(=O)OCCCN2C(=O)c3ccccc3S2(=O)=O)C1c1ccccc1C(F)(F)F (stereo not shown) [Example 45, 2,6-Dimethyl-5-(2-methoxyethoxycarbonyl)-4-(2-trifluoromethylphenyl)-1,4-dihydropyridine-3-carboxylic acid-3-[N-(1,2-benzisothiazolyl-3(2H)one-1,1-dioxide)]-propylester] | – | 11 | 16 | 1.38
15 | CC1=C(C(=O)OCCN2C(=O)c3ccccc3S2(=O)=O)C(c2cccc([N+](=O)[O-])c2)C(C(=O)OC(C)(C)C)=C(C)N1 (stereo not shown) [Example 51] | – | 24.6 | 72 | 1.6
16 | CC1=C(C(=O)OCCCN2C(=O)c3ccccc3S2(=O)=O)C(c2ccccc2Cl)C(C(=O)OC(C)C)=C(C)N1 (stereo not shown) [Example 52, 4-(2-Chlorophenyl)-2,6-dimethyl-5-isopropoxycarbonyl-1,4-dihydropyridine-3-carboxylic acid-3-[N-(1,2-benzisothiazolyl-3(2H)one-1,1-dioxide)]-propylester] | – | 19.4 | 37 | 1.3
17 | CC1=C(C(=O)OCCN2C(=O)c3ccccc3S2(=O)=O)C(c2ccccc2[N+](=O)[O-])C(C(=O)OC(C)(C)C)=C(C)N1 (stereo not shown) [Example 54, 5-Tert.-butoxycarbonyl-2,6-dimethyl-4-(2-nitrophenyl)-1,4-dihydropyridine-3-carboxylic acid-2-[N-(1,2-benzisothiazolyl-3(2H)one-1,1-dioxide)]-ethylester] | – | 23.4 | 41 | 0.7
18 | CC1=C(C(=O)OCCN2C(=O)c3ccccc3S2(=O)=O)C(c2cccc(Cl)c2Cl)C(C(=O)OC(C)(C)C)=C(C)N1 (stereo not shown) [Example 55, 5-Tert.-butoxycarbonyl-4-(2,3-dichlorophenyl)-2,6-dimethyl-1,4-dihydropyridine-3-carboxylic acid-2-[N-(1,2-benzisothiazolyl-3(2H)one-1,1-dioxide)]-ethylester] | – | 35.8 | 122 | 2.3
19 | COC(=O)C1=C(C)NC(C)=C(C(=O)OC)C1c1ccccc1[N+](=O)[O-] [nifedipine, 2,6-dimethyl-4-(2-nitrophenyl)-1,4-dihydropyridine-3,5-dicarboxylic acid 3,5-dimethylester, reference compound] | – | 35.4 | 39 | 2.9
